The record followed here is paper PMC7200739, “Small molecule inhibition of human cGAS reduces total cGAMP output and cytokine expression in cells” (Scientific Reports, 2020).

The experiment has as its target human CYCLIC GMP-AMP SYNTHASE (h-cGAS) (Homo sapiens, UniProt Q8N884). As to the kind of experiment: IFN-luciferase reporter dose response in HT-DNA-stimulated THP-1 cells; LC-MS/MS of intracellular cGAMP in RAW KO-cGAS cells expressing h-cGAS. The format is cell-based. A general note: A reporter such as luciferase makes a cellular process visible.

Chain of human CYCLIC GMP-AMP SYNTHASE (h-cGAS) (Q8N884 whole entry): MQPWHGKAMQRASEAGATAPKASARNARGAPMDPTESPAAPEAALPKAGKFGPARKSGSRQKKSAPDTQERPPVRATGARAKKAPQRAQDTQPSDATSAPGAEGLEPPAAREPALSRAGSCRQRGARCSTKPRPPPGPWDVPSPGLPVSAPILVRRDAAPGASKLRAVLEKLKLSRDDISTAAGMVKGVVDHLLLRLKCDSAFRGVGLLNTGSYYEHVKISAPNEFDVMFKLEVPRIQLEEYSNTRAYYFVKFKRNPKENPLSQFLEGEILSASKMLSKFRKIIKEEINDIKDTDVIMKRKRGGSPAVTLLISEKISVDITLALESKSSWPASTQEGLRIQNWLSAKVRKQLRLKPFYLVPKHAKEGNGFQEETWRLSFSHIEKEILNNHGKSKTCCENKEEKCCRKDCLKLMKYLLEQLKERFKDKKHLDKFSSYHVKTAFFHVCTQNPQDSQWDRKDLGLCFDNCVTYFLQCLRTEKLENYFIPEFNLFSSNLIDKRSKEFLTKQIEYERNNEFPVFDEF

A word on the IC50: it is the concentration that gives 50% inhibition. Lower therefore signals greater potency. With RU.521, the IC50 is roughly 800 nM.
